Test: recombinant UMI read abundance after kanamycin selection (control-corrected) (log10(CPM+1)); higher = more efficient recombination; extreme values may be limits of the assay; sequences stand for … in AGTGCAGAGAAAATCGGCCAGTTTTCTCTGCCTGCAGTCCGCATGCCGTGGGACCCCTTGGGTTCTAACCTGTTGCCTAGATTTATGCAGCGGACTGCCTTTCTCCCAAAGTGATAAACCGG…AGGTTGGTTTCACT; site = the 11-nt donor
Protocol: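 Pooled E. coli donor-specificity screen for the IS621 bridge recombinase. Each library member carries a reprogrammed 11-nt donor and a full-length LE bridge RNA expressed in cis from the natural promoter, with a paired donor-binding loop (8-nt LDG + 4-nt RDG) and a target-binding loop fixed to T5. It is co-electroporated with a T5 target plasmid; recombinase is induced with 0.07 mM IPTG and recombinants are selected on kanamycin. UMIs are counted as CPM, averaged over two biological replicates and corrected by the unselected control. Molecule = full bridge RNA written as DNA, built from the T5 scaffold: LDG = donor specificity nt 1-8, RDG = reverse complement of nt 8-11.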
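Also: IS621 bridge recombinase in Escherichia coli cells against a fixed T5 target plasmid.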

| Sequence | recombinant UMI read abundance (log10) |
| --- | --- |
| ACAGTATCATGGACCGGTTTTCCCGGTAATCCGTATTTGCA (site ACAGTATCTCA) | 0.878 |
| ACAGTATCATGGACCGGTTTTCCCGGTAATCCGTATTTGCA (site ACAGTATCTCG) | 1.77 |
| ACAGTATCATGGACCGGTTTTCCCGGTAATCCGTATTTGCA (site ACAGTATCTGG) | 2.13 |
| ACAGTATCATGGACCGGTTTTCCCGGTAATCCGTATTTGCA (site ACAGTATCTGT) | 0.00931 |
| ACAGTATCATGGACCGGTTTTCCCGGTAATCCGTATTTGCA (site ACAGTATCTTA) | 2.23 |
| ACAGTATCATGGACCGGTTTTCCCGGTAATCCGTATTTGCA (site ACAGTATCTTC) | 1.17 |
| ACAGTATCATGGACCGGTTTTCCCGGTAATCCGTATTTGCA (site ACAGTATCTTG) | 2.67 |
| ACAGTATCATGGACCGGTTTTCCCGGTAATCCGTATTTGCA (site ACAGTATCTTT) | 2.17 |
| ACAGTATCATGGACCGGTTTTCCCGGTAATCCGTATTTGCA (site ACAGTCACTTG) | 2.03 |
| ACAGTATCATGGACCGGTTTTCCCGGTAATCCGTATTTGCA (site ACAGTCTCTAG) | 0 |
| ACAGTATCATGGACCGGTTTTCCCGGTAATCCGTATTTGCA (site ACAGTCTCTTC) | 0.0179 |
| ACAGTATCATGGACCGGTTTTCCCGGTAATCCGTATTTGCA (site ACAGTCTCTTG) | 2.06 |
| ACAGTATCATGGACCGGTTTTCCCGGTAATCCGTATTTGCA (site ACAGTGCCTTG) | 0.121 |
| ACAGTATCATGGACCGGTTTTCCCGGTAATCCGTATTTGCA (site ACAGTGTCTGG) | 0 |
| ACAGTATCATGGACCGGTTTTCCCGGTAATCCGTATTTGCA (site ACAGTGTCTTG) | 2.4 |
| ACAGTATCATGGACCGGTTTTCCCGGTAATCCGTATTTGCA (site ACAGTGTCTTT) | 0.0151 |
| ACAGTATCATGGACCGGTTTTCCCGGTAATCCGTATTTGCA (site ACAGTTGCTTG) | 0.0085 |
| ACAGTATCATGGACCGGTTTTCCCGGTAATCCGTATTTGCA (site ACAGTTTCTCG) | 0 |
| ACAGTATCATGGACCGGTTTTCCCGGTAATCCGTATTTGCA (site ACAGTTTCTTA) | 0.0131 |
| ACAGTATCATGGACCGGTTTTCCCGGTAATCCGTATTTGCA (site ACAGTTTCTTG) | 1.23 |
| ACAGTATCATGGACCGGTTTTCCCGGTAATCCGTATTTGCA (site ACATGATCTTG) | 1.29 |
| ACAGTATCATGGACCGGTTTTCCCGGTAATCCGTATTTGCA (site ACATTACCTTG) | 0 |
| ACAGTATCATGGACCGGTTTTCCCGGTAATCCGTATTTGCA (site ACATTATCTGG) | 0 |
| ACAGTATCATGGACCGGTTTTCCCGGTAATCCGTATTTGCA (site ACATTATCTTG) | 1.22 |
| ACAGTATCATGGACCGGTTTTCCCGGTAATCCGTATTTGCA (site ACATTATCTTT) | 0.0113 |
| ACAGTATCATGGACCGGTTTTCCCGGTAATCCGTATTTGCA (site ACATTGTCTTG) | 1.03 |

| Sequence | recombinant UMI read abundance (log10) |
| --- | --- |
| ACAGTATCATGGACCGGTTTTCCCGGTAATCCGTATTTGCA (site ACCATATCTTG) | 1.91 |
| ACAGTATCATGGACCGGTTTTCCCGGTAATCCGTATTTGCA (site ACCGAATCTTG) | 0 |
| ACAGTATCATGGACCGGTTTTCCCGGTAATCCGTATTTGCA (site ACCGTAACTTG) | 0.0063 |
| ACAGTATCATGGACCGGTTTTCCCGGTAATCCGTATTTGCA (site ACCGTATCTAG) | 0.0104 |
| ACAGTATCATGGACCGGTTTTCCCGGTAATCCGTATTTGCA (site ACCGTATCTTC) | 0.00762 |
| ACAGTATCATGGACCGGTTTTCCCGGTAATCCGTATTTGCA (site ACCGTATCTTG) | 1.82 |
| ACAGTATCATGGACCGGTTTTCCCGGTAATCCGTATTTGCA (site ACCGTCTCTTG) | 1.39 |
| ACAGTATCATGGACCGGTTTTCCCGGTAATCCGTATTTGCA (site ACGCTATCTTG) | 1.16 |
| ACAGTATCATGGACCGGTTTTCCCGGTAATCCGTATTTGCA (site ACGGCATCTTG) | 0 |
| ACAGTATCATGGACCGGTTTTCCCGGTAATCCGTATTTGCA (site ACGGTAGCTTG) | 0.0044 |
| ACAGTATCATGGACCGGTTTTCCCGGTAATCCGTATTTGCA (site ACGGTATCTCG) | 0.00452 |
| ACAGTATCATGGACCGGTTTTCCCGGTAATCCGTATTTGCA (site ACGGTATCTTA) | 0.00481 |
| ACAGTATCATGGACCGGTTTTCCCGGTAATCCGTATTTGCA (site ACGGTATCTTG) | 0.0156 |
| ACAGTATCATGGACCGGTTTTCCCGGTAATCCGTATTTGCA (site ACGGTTTCTTG) | 0.0105 |
| ACAGTATCATGGACCGGTTTTCCCGGTAATCCGTATTTGCA (site ACTGGATCTTG) | 0 |
| ACAGTATCATGGACCGGTTTTCCCGGTAATCCGTATTTGCA (site ACTGTACCTTG) | 0 |
| ACAGTATCATGGACCGGTTTTCCCGGTAATCCGTATTTGCA (site ACTGTATCTGG) | 0.00893 |
| ACAGTATCATGGACCGGTTTTCCCGGTAATCCGTATTTGCA (site ACTGTATCTTG) | 2.31 |
| ACAGTATCATGGACCGGTTTTCCCGGTAATCCGTATTTGCA (site ACTGTATCTTT) | 0.00405 |
| ACAGTATCATGGACCGGTTTTCCCGGTAATCCGTATTTGCA (site ACTGTGTCTTG) | 1.26 |
| ACAGTATCATGGACCGGTTTTCCCGGTAATCCGTATTTGCA (site ACTTTATCTTG) | 1.44 |
| ACAGTATCATGGACCGGTTTTCCCGGTAATCCGTATTTGCA (site AGAGGATCTTG) | 0.0328 |
| ACAGTATCATGGACCGGTTTTCCCGGTAATCCGTATTTGCA (site AGAGTACCTTG) | 0 |
| ACAGTATCATGGACCGGTTTTCCCGGTAATCCGTATTTGCA (site AGAGTATCTGG) | 0.0344 |
| ACAGTATCATGGACCGGTTTTCCCGGTAATCCGTATTTGCA (site AGAGTATCTTG) | 2.46 |
| ACAGTATCATGGACCGGTTTTCCCGGTAATCCGTATTTGCA (site AGAGTATCTTT) | 0.0042 |

From the supplement of paper PMC11208160
